TD50 and carcinogen call data for six molecules are collected here from PubChem BioAssay AID1745844 (Carcinogenic Potency Database (CPDB), 2022).

Calls of active or inactive are those of the source. How the calls were made is not given here.

In the series the test system is rodent lifetime carcinogenesis bioassay, tumor incidence TD50. The series is described as follows: chronic cancer bioassays in animals – CPDB, compiled studies (AID 1745844).
Where [1] appears, read: rat, strain Fischer 344, females, in feed, site: any site (literature study), lesion: several types, types named in the paper, dosed 103 weeks, study length 105 weeks.

One may read the TD50 as the dose at which the toxic effect under study appears in half of the subjects. As to `Nc1nc(N)nc(-c2ccc([N+](=O)[O-])o2)n1`, the TD50 is 1.71 mg/kg/day (rat, strain Sprague-Dawley, females, in feed, site: any site (literature study), lesion: several types, types named in the paper, dosed 46 weeks, study length 66 weeks); 4.49 mg/kg/day (rat, strain Sprague-Dawley, females, in feed, site: mammary gland, lesion: adenocarcinoma, dosed 46 weeks, study length 66 weeks); 1.71 mg/kg/day (rat, strain Sprague-Dawley, females, in feed, site: mammary gland, lesion: several types, types named in the paper, dosed 46 weeks, study length 66 weeks).

Regarding `Clc1cc2c(cc1Cl)Oc1cc(Cl)c(Cl)cc1O2`, the TD50 by setting is: (mouse, strain B6C3F1, females, by gavage, site: all sites, lesion: leukemia + lymphoma, dosed 104 weeks, study length 104 weeks) 0.000709 mg/kg/day; (mouse, strain B6C3F1, females, by gavage, site: all sites, lesion: lymphoma, histiocytic type, dosed 104 weeks, study length 104 weeks) 0.000705 mg/kg/day; (mouse, strain B6C3F1, females, by gavage, site: all sites, lesion: lymphoma, dosed 104 weeks, study length 104 weeks) 0.000682 mg/kg/day; (mouse, strain B6C3F1, females, by gavage, site: any site (literature study), lesion: several types, types named in the paper, dosed 104 weeks, study length 104 weeks) 0.000494 mg/kg/day; (mouse, strain B6C3F1, females, by gavage, site: liver + thyroid gland, lesion: hepatocellular adenoma + hepatocellular carcinoma + follicular-cell adenoma, dosed 104 weeks, study length 104 weeks) 0.000526 mg/kg/day; (mouse, strain B6C3F1, females, by gavage, site: liver, lesion: hepatocellular adenoma + hepatocellular carcinoma + neoplastic nodule, dosed 104 weeks, study length 104 weeks) 0.000756 mg/kg/day. Also, the TD50 (mouse, strain B6C3F1, females, by gavage, site: liver, lesion: hepatocellular adenoma + hepatocellular carcinoma, dosed 104 weeks, study length 104 weeks) is 0.000756 mg/kg/day; the TD50 (mouse, strain B6C3F1, females, by gavage, site: liver, lesion: hepatocellular carcinoma, dosed 104 weeks, study length 104 weeks) was 0.0013 mg/kg/day; the TD50 (mouse, strain B6C3F1, females, by gavage, site: subcutaneous tissue, lesion: fibrosarcoma, dosed 104 weeks, study length 104 weeks) turned out to be 0.00172 mg/kg/day; the TD50 (mouse, strain B6C3F1, females, by gavage, site: thyroid gland, lesion: follicular-cell adenoma, dosed 104 weeks, study length 104 weeks) is 0.00159 mg/kg/day; the TD50 (mouse, strain B6C3F1, males, by gavage, site: any site (literature study), lesion: several types, types named in the paper, dosed 104 weeks, study length 104 weeks) is 0.000141 mg/kg/day; the TD50 (mouse, strain B6C3F1, males, by gavage, site: liver, lesion: hepatocellular adenoma + hepatocellular carcinoma + neoplastic nodule, dosed 104 weeks, study length 104 weeks) stood at 8.68e-05 mg/kg/day. In addition, the TD50 is, setting by setting: (mouse, strain B6C3F1, males, by gavage, site: liver, lesion: hepatocellular adenoma + hepatocellular carcinoma, dosed 104 weeks, study length 104 weeks) 8.68e-05 mg/kg/day; (mouse, strain B6C3F1, males, by gavage, site: liver, lesion: hepatocellular adenoma, dosed 104 weeks, study length 104 weeks) 0.000271 mg/kg/day; (mouse, strain B6C3F1, males, by gavage, site: liver, lesion: hepatocellular carcinoma, dosed 104 weeks, study length 104 weeks) 0.000147 mg/kg/day; (mouse, strain B6C3F1, males, by gavage, site: lung, lesion: alveolar/bronchiolar adenoma + alveolar/bronchiolar carcinoma, dosed 104 weeks, study length 104 weeks) 0.000198 mg/kg/day; (mouse, strain B6C3F1, males, by gavage, site: lung, lesion: alveolar/bronchiolar adenoma, dosed 104 weeks, study length 104 weeks) 0.000219 mg/kg/day; (rat, strain Osborne-Mendel, females, by gavage, site: any site (literature study), lesion: several types, types named in the paper, dosed 104 weeks, study length 105 weeks) 0.00158 mg/kg/day. Besides, the TD50 by setting is: (rat, strain Osborne-Mendel, females, by gavage, site: liver, lesion: hepatocellular adenoma + hepatocellular carcinoma + neoplastic nodule, dosed 104 weeks, study length 105 weeks) 0.000127 mg/kg/day; (rat, strain Osborne-Mendel, females, by gavage, site: liver, lesion: hepatocellular carcinoma + neoplastic nodule, dosed 104 weeks, study length 105 weeks) 0.000127 mg/kg/day; (rat, strain Osborne-Mendel, females, by gavage, site: liver, lesion: neoplastic nodule, dosed 104 weeks, study length 105 weeks) 0.000154 mg/kg/day; (rat, strain Osborne-Mendel, males, by gavage, site: adrenal gland, lesion: cortical adenoma, dosed 104 weeks, study length 105 weeks) 1.21e-05 mg/kg/day; (rat, strain Osborne-Mendel, males, by gavage, site: any site (literature study), lesion: several types, types named in the paper, dosed 104 weeks, study length 105 weeks) 0.000133 mg/kg/day; (rat, strain Osborne-Mendel, males, by gavage, site: liver, lesion: hepatocellular adenoma + hepatocellular carcinoma + neoplastic nodule, dosed 104 weeks, study length 105 weeks) 0.000391 mg/kg/day. Also, the TD50 was 0.000391 mg/kg/day (rat, strain Osborne-Mendel, males, by gavage, site: liver, lesion: hepatocellular carcinoma + neoplastic nodule, dosed 104 weeks, study length 105 weeks); 0.000391 mg/kg/day (rat, strain Osborne-Mendel, males, by gavage, site: liver, lesion: neoplastic nodule, dosed 104 weeks, study length 105 weeks); 0.000169 mg/kg/day (rat, strain Osborne-Mendel, males, by gavage, site: subcutaneous tissue, lesion: fibroma, dosed 104 weeks, study length 105 weeks); 0.000101 mg/kg/day (rat, strain Osborne-Mendel, males, by gavage, site: thyroid gland, lesion: follicular-cell adenoma + follicular-cell carcinoma, dosed 104 weeks, study length 105 weeks); 0.000113 mg/kg/day (rat, strain Osborne-Mendel, males, by gavage, site: thyroid gland, lesion: follicular-cell adenoma, dosed 104 weeks, study length 105 weeks); 0.000205 mg/kg/day (rat, strain Sprague-Dawley Spartan, females, in feed, site: hard palate/nasal turbinates, lesion: squamous-cell carcinoma, stratified, dosed 103 weeks, study length 103 weeks). The TD50 runs as follows: (rat, strain Sprague-Dawley Spartan, females, in feed, site: liver, lesion: hepatocellular carcinoma, dosed 103 weeks, study length 103 weeks) 6.51e-05 mg/kg/day; (rat, strain Sprague-Dawley Spartan, females, in feed, site: liver, lesion: hepatocellular hyperplastic nodule, dosed 103 weeks, study length 103 weeks) 6.67e-06 mg/kg/day; (rat, strain Sprague-Dawley Spartan, females, in feed, site: liver, lesion: several types, types named in the paper, dosed 103 weeks, study length 103 weeks) 1.49e-05 mg/kg/day; (rat, strain Sprague-Dawley Spartan, females, in feed, site: lung, lesion: squamous-cell carcinoma, keratinized, dosed 103 weeks, study length 103 weeks) 0.000192 mg/kg/day; (rat, strain Sprague-Dawley Spartan, males, in feed, site: adrenal gland, lesion: cortical adenoma, dosed 103 weeks, study length 103 weeks) 0.000217 mg/kg/day; (rat, strain Sprague-Dawley Spartan, males, in feed, site: hard palate/nasal turbinates, lesion: squamous-cell carcinoma, stratified, dosed 103 weeks, study length 103 weeks) 0.000393 mg/kg/day. The TD50 (rat, strain Sprague-Dawley Spartan, males, in feed, site: tongue, lesion: squamous-cell carcinoma, stratified, dosed 103 weeks, study length 103 weeks) is 0.000628 mg/kg/day; the TD50 (rat, strain Sprague-Dawley, males, in feed, site: liver, lesion: several types, types named in the paper, dosed 78 weeks, study length 95 weeks) was 8.31e-05 mg/kg/day; the TD50 (rat, strain Sprague-Dawley, males, in feed, site: lung, lesion: squamous-cell tumor, dosed 78 weeks, study length 95 weeks) is 7.96e-05 mg/kg/day. The carcinogen call (mouse, strain Swiss/H/Riop, males, by gavage, site: liver, lesion: several types, types named in the paper, dosed 52 weeks, study length 104 weeks) is “positive” and the carcinogen call (mouse, strain Swiss/H/Riop, males, by gavage, site: lung, lesion: one or several types, types not named, dosed 52 weeks, study length 104 weeks) was “negative (inactive)”.

As for `C=CC(=O)c1ccc2c(c1)OCO2`, under “rat, strain Charles River CD (Sprague-Dawley), males, in feed, site: liver, lesion: carcinoma, dosed 73 weeks, study length 95 weeks”, the carcinogen call is “negative (inactive)”.

Take `CNC(=O)ON=CC(C)(C)SC`: the carcinogen call is “negative (inactive)” (mouse, strain B6C3F1, females, in feed, site: any site (literature study), lesion: several types, types named in the paper, dosed 103 weeks, study length 103 weeks) and “negative (inactive)” under setting [1]. Also, the TD50 was 52.7 mg/kg/day (mouse, strain B6C3F1, females, in feed, site: liver, lesion: hepatocellular adenoma + hepatocellular carcinoma + neoplastic nodule, dosed 103 weeks, study length 103 weeks); 1.74 mg/kg/day (inactive) (mouse, strain B6C3F1, males, in feed, site: any site (literature study), lesion: several types, types named in the paper, dosed 103 weeks, study length 103 weeks); 2.83 mg/kg/day (mouse, strain B6C3F1, males, in feed, site: liver, lesion: hepatocellular adenoma + hepatocellular carcinoma + neoplastic nodule, dosed 103 weeks, study length 103 weeks); 14.8 mg/kg/day (mouse, strain B6C3F1, males, in feed, site: lung, lesion: alveolar/bronchiolar adenoma + alveolar/bronchiolar carcinoma, dosed 103 weeks, study length 103 weeks); 10.4 mg/kg/day (inactive) (rat, strain Fischer 344, males, in feed, site: any site (literature study), lesion: several types, types named in the paper, dosed 103 weeks, study length 105 weeks); 1.33 mg/kg/day (rat, strain Fischer 344, males, in feed, site: liver, lesion: hepatocellular adenoma + hepatocellular carcinoma + neoplastic nodule, dosed 103 weeks, study length 105 weeks).

Turning to `CCCCC(CC)COC(=O)CCCCC(=O)OCC(CC)CCCC` (stereo not drawn), the TD50 (mouse, strain B6C3F1, females, in feed, site: liver, lesion: hepatocellular adenoma + hepatocellular carcinoma + neoplastic nodule, dosed 103 weeks, study length 105 weeks) came to 3840 mg/kg/day; the TD50 (mouse, strain B6C3F1, females, in feed, site: liver, lesion: hepatocellular adenoma + hepatocellular carcinoma, dosed 103 weeks, study length 105 weeks) is 3840 mg/kg/day; the TD50 (mouse, strain B6C3F1, females, in feed, site: liver, lesion: hepatocellular carcinoma, dosed 103 weeks, study length 105 weeks) was 3050 mg/kg/day; the TD50 (mouse, strain B6C3F1, males, in feed, site: liver, lesion: hepatocellular adenoma + hepatocellular carcinoma + neoplastic nodule, dosed 103 weeks, study length 104 weeks) was found to be 5330 mg/kg/day; the TD50 (mouse, strain B6C3F1, males, in feed, site: liver, lesion: hepatocellular adenoma + hepatocellular carcinoma, dosed 103 weeks, study length 104 weeks) was 5330 mg/kg/day; the TD50 (mouse, strain B6C3F1, males, in feed, site: liver, lesion: hepatocellular adenoma, dosed 103 weeks, study length 104 weeks) is 9040 mg/kg/day. Also, the TD50 (mouse, strain B6C3F1, males, in feed, site: lung, lesion: alveolar/bronchiolar adenoma + alveolar/bronchiolar carcinoma, dosed 103 weeks, study length 104 weeks) came to 11700 mg/kg/day and the TD50 (rat, strain Fischer 344, females, in feed, site: liver, lesion: hepatocellular adenoma + hepatocellular carcinoma + neoplastic nodule, dosed 103 weeks, study length 105 weeks) turned out to be 14500 mg/kg/day. Besides, the carcinogen call by setting is: under setting [1], “negative (inactive)”; (rat, strain Fischer 344, males, in feed, site: any site (literature study), lesion: several types, types named in the paper, dosed 103 weeks, study length 104 weeks) “negative (inactive)”.

With `ClCOCCl`, the TD50 is 0.182 mg/kg/day (mouse, strain Ha/ICR, females, i.p., site: abdomen, lesion: sarcoma, dosed 60 weeks, study length 60 weeks); 1.26 mg/kg/day (mouse, strain Ha/ICR, males, inhaled, site: lung, lesion: adenoma, dosed 26 weeks, study length 108 weeks); 1.16 mg/kg/day (mouse, strain Ha/ICR, males, inhaled, site: lung, lesion: several types, types named in the paper, dosed 26 weeks, study length 108 weeks); 0.00234 mg/kg/day (rat, strain Sprague-Dawley Spartan, males, inhaled, site: any site (literature study), lesion: several types, types named in the paper, dosed 26 weeks, study length 121 weeks); 0.196 mg/kg/day (rat, strain Sprague-Dawley Spartan, males, inhaled, site: lung, lesion: adenoma, dosed 26 weeks, study length 121 weeks); 0.795 mg/kg/day (rat, strain Sprague-Dawley Spartan, males, inhaled, site: nasal passageway, lesion: carcinoma, dosed 26 weeks, study length 121 weeks). Where the note is “rat, strain Sprague-Dawley Spartan, males, inhaled, site: nasal passageway, lesion: esthesioneuroepithelioma, dosed 26 weeks, study length 121 weeks”, the TD50 is 0.00357 mg/kg/day. Also, the carcinogen call (mouse, strain Ha/ICR, males, inhaled, site: liver, lesion: hepatocellular carcinoma, dosed 26 weeks, study length 108 weeks) is “negative (inactive)”; the carcinogen call (mouse, strain Ha/ICR, males, inhaled, site: liver, lesion: several types, types named in the paper, dosed 26 weeks, study length 108 weeks) is “negative (inactive)”; the carcinogen call (rat, strain Sprague-Dawley Spartan, males, inhaled, site: liver, lesion: hepatocellular tumor, benign, dosed 26 weeks, study length 121 weeks) was “negative (inactive)”.
